Assay results as given in patent US20090018121A1, “PREVENTIVE AND/OR THERAPEUTIC AGENT FOR RHEUMATOID ARTHRITIS” (Kowa Co., Ltd., priority 2005, published 2009).

Test system: rat collagen-induced arthritis model
Assay: Edema suppressing effect in both hindlimbs in rat collagen-induced arthritis model (Edema Index)
Format: in vivo, rat (female Lewis, LEW/Crj)
Set-up: Edema Index: unit not given here
Details: sole administration; for Relative index: Edema Index relative to control group; for Relative index / Decrease rate (%) / Edema Index: oral; for Decrease rate (%): of Edema Index vs control group; for Edema Index: mean ± SE
Method: Female Lewis rats (LEW/Crj) (obtained from Charles River Laboratories Japan, Inc.) were used as test animals.
This Pre value was used as an index to divide the rats into groups by one-parameter-based block randomization, so that the values in the respective groups averaged out.
The collagen emulsion for sensitization used to induce arthritis in rats was prepared by homogenizing 0.3% Type II collagen liquid (manufactured by Collagen Research Center), Adjuvant Peptide (manufactured by Peptide Institute, Inc.) and Adjuvant Incomplete Freund (manufactured by DIFCO), using a Handy Micro Homogenizer (manufactured by Microtec Nition) under ice-cooling. The collagen emulsion thus prepared was intracutaneously administered at 10 sites in the back of each rat at a dose of 0.1 mL/site, to perform initial sensitization of the rat. Seven days after initial sensitization, 0.12 mL of the same collagen emulsion was intracutaneously administered to the tail head of each rat, to perform booster sensitization.
Drug administration was conducted from the day after the initial sensitization through 18 days thereafter. Drug A and Drugs B-1, B-2 and B-4 were all orally administered two times a day, in the morning (9:00 to 11:00 AM) and in the evening (15:30 to 17:30 PM). Drug B-3 was orally administered once a day, around noon (11:30 AM to 13:30 PM).
14 Days and 18 days after the initial sensitization, respectively, the hindlimbs volume was measured again for each rat, and the difference between each of the values and the Pre value was determined to calculate the edema volume for both hindlimbs. The sum of the edema volumes for both hindlimbs measured 14 days and 18 days after the initial sensitization was calculated as the Edema Index, and this was taken as an index for the effect of the drug.
The Edema Index is represented by an average value±standard error for 8 rats in each group. Also, the decrease rate is represented by the formula: ((X−Y)/X)×100 (wherein X: average value of Edema Index for the control group, Y: average value of Edema Index for each group).

Structure (SMILES)	Relative index (10 mg/kg, two times a day)	Decrease rate (%) (10 mg/kg, two times a day)	Edema Index (10 mg/kg, two times a day)	Relative index (1 mg/kg, two times a day)	Decrease rate (%) (1 mg/kg, two times a day)	Edema Index (1 mg/kg, two times a day)	Relative index (0.2 mg/kg, once a day)	Decrease rate (%) (0.2 mg/kg, once a day)	Edema Index (0.2 mg/kg, once a day)	Relative index (3 mg/kg, two times a day)	Decrease rate (%) (3 mg/kg, two times a day)	Decrease rate of Edema Index vs control group (%) (3 mg/kg)	Edema Index (3 mg/kg, two times a day, through 18 days after initial sensitization, sum of edema volumes of both hindlimbs at days 14 and 18)	Decrease rate of Edema Index vs control group (%) (10 mg/kg)
CSc1ccc(-c2nn(Cc3ccccc3)c(=O)cc2-c2ccc(Cl)cc2)cc1 [Drug A, 2-benzyl-5-(4-chlorophenyl)-6-[4-(methylthio)phenyl]-2H-pyridazin-3-one]	0.81	19%	2.93 ± 0.22											
O=C(O)Cc1ccccc1Nc1c(Cl)cccc1Cl [Drug B-1, diclofenac sodium]				0.33	67%	1.20 ± 0.26								
Cc1cnc(NC(=O)C2=C(O)c3ccccc3S(=O)(=O)N2C)s1 [Drug B-3, meloxicam]							0.58	42%	2.04 ± 0.10					
Cc1ccc(-c2cc(C(F)(F)F)nn2-c2ccc(S(N)(=O)=O)cc2)cc1 [Drug B-4, celecoxib]	0.46	54%	1.86 ± 0.19	0.70	30%	3.41 ± 0.16				0.61	39%	39%	2.46 ± 0.22	54%
